Data reported in patent US20110124021A1, “PHOS[…] ACID SYNTHASE AND CANCER” (priority 2007, published 2011).

Columns and labels:
Format in all cases: cell-based, human
[1] = tested on: FAS phosphorylation in PPC-1 cell line; experiment: Effect of okadaic acid on FAS phosphorylation in PPC-1 cells (FIG. 7A); conditions: brief treatment with 100 nM okadaic acid; PPC-1 prostate cancer cell line
Source text: (§1) The relationship between FAS phosphorylation and cancer was investigated with a panel of the following human immortalized non-transformed cell lines: IMR-90 fetal lung, hPS human prostate and human cancer cell lines: HCT-116 colon, PPC-1 prostate, and SKBr3 breast. FAS enzyme levels (adjusted to total cellular protein) were quantitated by immunoblot and normalized to IMR-90. Both IMR-90 and hPS non-transformed cell lines had relatively low levels of FAS expression compared to the cancer cell lines, which ranged from 4.3 to 22 fold elevations compared to IMR-90 cells. The high level of FAS expression in SKBr3 cells is consistent with the observation that 28% of its cytosolic protein is FAS (Thompson et al., Biochem. Biophys Acta, 662: 125-130 (1981)).
(§2) Because the FAS expression levels in this panel of cells is consistent with observations made in vivo, the possibility of differential FAS phosphorylation in these cells was investigated. […] No immunoreactivity was detected with an anti-phosphotyrosine or an anti-phosphoserine antibody, although additional antibodies and FAS proteins were not tested. Additional human cancer cell lines, such as LnCAP, OVCAR-3, SKOV3 (ovary), RKO (colon), H460, LX7 (lung), CAPAN-1, and PANC-1 (pancreas) can also be assessed for differential FAS phosphorylation as described above. […]

[2] = tested on: FAS phosphorylation in HCT-116 cell line; experiment: Effect of okadaic acid on FAS phosphorylation in HCT-116 cells (FIG. 7A); conditions: brief treatment with 100 nM okadaic acid; HCT-116 colon cancer cell line
Source text: as §1, §2

total cellular FAS = experiment: Effect of okadaic acid treatment on total cellular FAS (FIG. 7B); conditions: cell line not stated
Source text: FIGS. 7A and 7B, illustrates that phosphorylated FAS increases with okadaic acid treatment (part A) while total FAS protein is reduced (part B).
The effect of okadaic acid, a protein phosphatase 2A inhibitor, in FAS phosphorylation was studied.

## C=C1[C@@H](O)[C@@H]2O[C@]3(CC[C@H](/C=C/[C@@H](C)[C@@H]4CC(C)=C[C@@]5(O[C@H](C[C@@](C)(O)C(=O)O)CC[C@H]5O)O4)O3)CC[C@H]2O[C@@H]1[C@@H](O)C[C@H](C)[C@H]1O[C@@]2(CCCCO2)CC[C@H]1C [okadaic acid]
[1]
  ratio of phosphorylated FAS to total FAS: increases substantially
[2]
  ratio of phosphorylated FAS to total FAS: increases substantially
Total cellular FAS
  total FAS protein: reduced
